Results: ChEMBL document CHEMBL1153630, “Structure-activity relationship (SAR) of parthenin analogues with pro-apoptotic activity: Development of novel anti-cancer leads” (Bioorg Med Chem Lett, 2009)
Active and inactive are the calls of the source. The rule behind the calls is not given here.

Experiments:
HL-60 [1] = experiment: Induction of apoptosis in human HL60 cells assessed as DNA population at sub G0/G1 phase at 10 uM after 6 hrs by flow cytometry; type: functional
HeLa = experiment: Cytotoxicity against human HeLa cells after 48 hrs by MTT assay; type: functional, cell-based
HL-60 [2] = experiment: Cytotoxicity against human HL60 cells after 48 hrs by MTT assay; type: functional, cell-based; settings: HL-60, 48 h
HL-60 [3] = experiment: Inhibition of telomerase expression in human HL60 cells at 10 uM after 6 hrs by Western blot analysis; type: functional; settings: HL-60, 6 h
[4] = target: DNA topoisomerase 2-alpha (Homo sapiens) (UniProt P11388); experiment: Inhibition of human topoisomerase 2-mediated relaxation of supercoiled plasmid DNA at 10 uM after 1 hr by electrophoresis analysis
Chain of DNA topoisomerase 2-alpha (Homo sapiens) (P11388 whole entry): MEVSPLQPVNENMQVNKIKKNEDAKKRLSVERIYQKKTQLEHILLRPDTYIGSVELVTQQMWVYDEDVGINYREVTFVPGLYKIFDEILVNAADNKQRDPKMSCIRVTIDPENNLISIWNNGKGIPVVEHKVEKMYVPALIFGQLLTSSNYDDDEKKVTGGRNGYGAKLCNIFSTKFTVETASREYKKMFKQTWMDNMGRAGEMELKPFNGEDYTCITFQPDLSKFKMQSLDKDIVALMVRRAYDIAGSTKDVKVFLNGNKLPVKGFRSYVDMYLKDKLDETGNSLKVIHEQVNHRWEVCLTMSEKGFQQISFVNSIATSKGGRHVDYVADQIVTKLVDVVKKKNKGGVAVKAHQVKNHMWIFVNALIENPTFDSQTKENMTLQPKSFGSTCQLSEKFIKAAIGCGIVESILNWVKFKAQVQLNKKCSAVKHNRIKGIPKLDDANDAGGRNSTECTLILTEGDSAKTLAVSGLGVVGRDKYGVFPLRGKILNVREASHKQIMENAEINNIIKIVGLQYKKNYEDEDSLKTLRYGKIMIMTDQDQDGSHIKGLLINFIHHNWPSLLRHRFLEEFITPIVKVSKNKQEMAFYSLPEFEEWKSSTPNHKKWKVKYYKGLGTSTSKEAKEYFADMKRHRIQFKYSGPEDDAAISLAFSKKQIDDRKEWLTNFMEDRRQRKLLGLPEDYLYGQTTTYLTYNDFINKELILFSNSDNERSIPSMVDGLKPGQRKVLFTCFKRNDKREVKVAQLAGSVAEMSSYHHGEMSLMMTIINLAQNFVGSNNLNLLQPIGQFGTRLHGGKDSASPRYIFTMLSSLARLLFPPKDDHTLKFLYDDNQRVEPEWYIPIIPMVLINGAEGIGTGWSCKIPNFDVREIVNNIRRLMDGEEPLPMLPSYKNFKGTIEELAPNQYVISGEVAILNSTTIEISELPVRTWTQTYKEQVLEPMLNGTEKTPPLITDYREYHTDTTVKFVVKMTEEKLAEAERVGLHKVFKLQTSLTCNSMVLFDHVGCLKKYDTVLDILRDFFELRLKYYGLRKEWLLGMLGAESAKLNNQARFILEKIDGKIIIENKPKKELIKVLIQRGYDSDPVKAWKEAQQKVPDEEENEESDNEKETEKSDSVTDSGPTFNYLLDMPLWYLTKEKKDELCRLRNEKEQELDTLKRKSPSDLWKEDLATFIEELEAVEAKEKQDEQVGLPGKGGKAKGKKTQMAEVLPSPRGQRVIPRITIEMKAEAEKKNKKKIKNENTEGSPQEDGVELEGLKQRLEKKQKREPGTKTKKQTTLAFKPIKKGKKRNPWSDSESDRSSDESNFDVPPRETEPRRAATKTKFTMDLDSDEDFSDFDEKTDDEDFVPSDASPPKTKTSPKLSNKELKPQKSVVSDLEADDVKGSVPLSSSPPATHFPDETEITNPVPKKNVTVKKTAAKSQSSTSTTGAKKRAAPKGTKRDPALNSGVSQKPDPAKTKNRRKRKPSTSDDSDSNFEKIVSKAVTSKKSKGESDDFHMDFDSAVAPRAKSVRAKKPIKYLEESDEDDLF

[5] = target: DNA topoisomerase 2-alpha (Homo sapiens) (UniProt P11388); experiment: Inhibition of human topoisomerase 2-mediated relaxation of supercoiled plasmid DNA at 100 uM after 1 hr by electrophoresis analysis

Compound | Activity (HL-60 [1]) | IC50 (HeLa) | IC50 (HL-60 [2]) | inhibition at 10 µM (HL-60 [3]) | inhibition [4] | inhibition [5]
C=C1C(=O)O[C@@H]2[C@H]1CC[C@H](C)[C@]13OC(C)O[C@H]1CC(=O)[C@@]23C (some centres undefined) | 1.9% | 70 µM | 41 µM |  |  | 
C=C1C(=O)O[C@@H]2[C@H]1CC[C@H](C)[C@]1(O)C=C(/C=C/CCC)C(=O)[C@@]21C | 2.33% | 68 µM | 42 µM |  |  | 
C=C1C(=O)O[C@@H]2[C@H]1CC[C@H](C)[C@]13OCO[C@H]1CC(=O)[C@@]23C | 2.86% | 65 µM | 49 µM |  |  | 
C=C1C(=O)O[C@@H]2[C@H]1CC[C@H](C)[C@]13OCO[C@H]1C(CO)(CO)C(=O)[C@@]23C | 2.61% | 70 µM | 17 µM |  |  | 
C=C1C(=O)O[C@@H]2[C@H]1CCC(C)=C1C=CC(=O)[C@]12C | 2.95% | 74 µM | 16 µM |  |  | 
C=C1C(=O)O[C@@H]2[C@H]1CC[C@H](C)[C@]1(O)[C@H](OCC)CC(=O)[C@@]21C | 4.51% | 76 µM | 60 µM |  |  | 
C=C1C(=O)O[C@@H]2[C@H]1CC[C@H](C)[C@]1(O)[C@H](OCCC)CC(=O)[C@@]21C | 3.21% | 74 µM | 18 µM |  |  | 
C=C1C(=O)O[C@@H]2[C@H]1CC[C@H](C)[C@]1(O)C=CC(=O)[C@@]21C [PARTHENIN] | 13.69% | 60 µM | 17 µM |  |  | 
C[C@H]1CC[C@@H]2[C@@H](OC(=O)C2(Br)CBr)[C@]2(C)C(=O)C(Br)C(Br)[C@@]12O (some centres undefined) | 18.33% | 61 µM | 8 µM |  |  | 
C=C1C(=O)O[C@@H]2[C@H]1CC[C@H](C)[C@]1(O)[C@H](OC)CC(=O)[C@@]21C | 1.95% | 68 µM | 32 µM |  |  | 
C=C1C(=O)O[C@@H]2[C@H]1CC[C@H](C)[C@]13OC(/C=C/c4ccccc4)O[C@H]1/C(=C/C=C/c1ccccc1)C(=O)[C@@]23C (some centres undefined) | 82.97% | 25 µM | 7 µM |  |  | 
C=C1C(=O)O[C@@H]2[C@H]1CC[C@H](C)[C@]13OC(CC)O[C@H]1CC(=O)[C@@]23C (some centres undefined) | 2.71% | 65 µM | 38 µM |  |  | 
C[C@H]1CC[C@H]2[C@H](COCCO)C(=O)O[C@H]2[C@]2(C)C(=O)C=C[C@@]12O | 2.05% | 76 µM | 44 µM |  |  | 
C[C@H]1CC[C@@H]2[C@@H](OC(=O)C2(O)CBr)[C@]2(C)C(=O)C=C[C@@]12O (some centres undefined) | 3.25% | 64 µM | 12 µM |  |  | 
C=C1C(=O)O[C@@H]2[C@H]1CC[C@H](C)[C@]1(O)C=C(C(O)/C=C/c3ccccc3)C(=O)[C@@]21C (some centres undefined) | 2.44% | 78 µM | 46 µM |  |  | 
C=C1C(=O)O[C@@H]2[C@H]1CC[C@H](C)[C@]13OC(c4ccccc4)O[C@H]1/C(=C/c1ccccc1)C(=O)[C@@]23C (some centres undefined) | 69.28% | 31 µM | 6 µM |  |  | 
C=C1C(=O)O[C@@H]2[C@H]1CC[C@H](C)[C@]1(O)[C@H](OCCCC)CC(=O)[C@@]21C | 1.9% | 70 µM | 42 µM |  |  | 
C=C1C(=O)O[C@@H]2[C@H]1CC[C@H](C)[C@]13OC(Cc4ccco4)O[C@H]1/C(=C/Cc1ccco1)C(=O)[C@@]23C (some centres undefined) | 42.38% | 68 µM | 5 µM |  |  | 
C=C1C(=O)O[C@@H]2[C@H]1CC[C@H](C)[C@]13OC(c4ccc(OC)cc4)O[C@H]1/C(=C/c1ccc(OC)cc1)C(=O)[C@@]23C (some centres undefined) | 2.17% | 72 µM | 46 µM |  |  | 

Compound | Activity (HL-60 [1]) | IC50 (HeLa) | IC50 (HL-60 [2]) | inhibition at 10 µM (HL-60 [3]) | inhibition [4] | inhibition [5]
C=C1C(=O)O[C@@H]2[C@H]1CC[C@H](C)[C@]1(O)[C@@H](O)/C(=C/c3ccc(Cl)cc3)C(=O)[C@@]21C | 19.38% | 44 µM | 9 µM |  |  | 
C=C1C(=O)O[C@@H]2[C@H]1CC[C@H](C)[C@]13OC(c4ccc(Cl)cc4)O[C@H]1/C(=C/c1ccc(Cl)cc1)C(=O)[C@@]23C (some centres undefined) | 94.1% | 12 µM | 3 µM | 80% | Active | Active
C=C1C(=O)O[C@@H]2[C@H]1CC[C@H](C)[C@]1(O)C=C(C(O)c3ccc(Cl)cc3)C(=O)[C@@]21C (some centres undefined) | 2.76% | 70 µM | 17 µM |  |  | 
C=C1C(=O)O[C@@H]2[C@H]1CC[C@H](C)[C@]13OC(c4ccc5c(c4)OCO5)O[C@H]1/C(=C/c1ccc4c(c1)OCO4)C(=O)[C@@]23C (some centres undefined) | 58.75% | 57 µM | 5 µM |  |  | 
C[C@H]1CC[C@@H]2[C@@H](OC(=O)C2(Br)CBr)[C@]2(C)C(=O)C=C[C@@]12O (some centres undefined) | 1.93% | 67 µM | 12 µM |  |  | 
C[C@H]1CC[C@@H]2[C@@H](OC(=O)C2(Br)CBr)[C@]2(C)C(=O)C(Br)=C[C@@]12O (some centres undefined) | 2.17% | 76 µM | 13 µM |  |  | 
C=C1C(=O)O[C@@H]2[C@H]1CC[C@H](C)[C@]1(O)C=C(CO)C(=O)[C@@]21C | 3.01% | 65 µM | 16 µM |  |  | 
C=C1C(=O)O[C@@H]2[C@H]1CC[C@H](C)[C@]1(O)[C@H](O)CC(=O)[C@@]21C | 1.17% | 68 µM | 50 µM |  |  | 
C=C1C(=O)O[C@@H]2[C@H]1CC[C@H](C)[C@]1(O)C=C(C(O)c3ccccc3)C(=O)[C@@]21C (some centres undefined) | 13.89% | 58 µM | 9 µM |  |  | 
C=C1C(=O)O[C@@H]2[C@H]1CC[C@H](C)[C@]1(O)C=C(/C=C/CCCCC)C(=O)[C@@]21C | 6.78% | 47 µM | 24 µM |  |  | 
CC1C(=O)O[C@@H]2[C@H]1CC[C@H](C)[C@]1(O)C=CC(O)[C@@]21C (some centres undefined) | 1.43% | 64 µM | 48 µM |  |  | 
C[C@H]1CC[C@H]2[C@H](COCCO)C(=O)O[C@H]2[C@]2(C)C(=O)C[C@@H](OCCO)[C@@]12O | 2.19% | 72 µM | 55 µM |  |  | 
C=C1C(=O)O[C@@H]2[C@H]1CC[C@H](C)[C@]1(O)C=C(/C=C/CC)C(=O)[C@@]21C | 1.6% | 73 µM | 45 µM |  |  | 
C=C1C(=O)O[C@@H]2[C@H]1CC[C@H](C)[C@]13OC(c4ccc(OC)c(OC)c4)O[C@H]1/C(=C/c1ccc(OC)c(OC)c1)C(=O)[C@@]23C (some centres undefined) | 81.38% | 32 µM | 6 µM |  |  | 
C=C1C(=O)O[C@@H]2[C@H]1CC[C@H](C)[C@]1(O)C=CC(=O)O[C@@]21C | 2.98% | 67 µM | 18 µM |  |  | 
C=C1C(=O)O[C@@H]2[C@H]1CC[C@H](C)[C@]1(O)C=C(C(O)c3ccc4c(c3)OCO4)C(=O)[C@@]21C (some centres undefined) | 2.13% | 73 µM | 18 µM |  |  | 
C=C1C(=O)O[C@@H]2[C@H]1CC[C@H](C)[C@]1(O)[C@H](OCCO)CC(=O)[C@@]21C | 1.81% | 72 µM | 44 µM |  |  | 
CC(=O)OC1C=C[C@@]2(O)[C@@H](C)CC[C@H]3C(C)C(=O)O[C@H]3[C@]12C (some centres undefined) | 0.82% | 74 µM | 48 µM |  |  | 
